Where “and” joins values, the source holds several entries; their conditions need not be identical. Equal values may be shown once.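 Cells were grown in 96-well plates and exposed to each compound for 48 hours at five concentrations; endpoints were interpolated linearly between bracketing concentrations, or set to the highest concentration if not reached. At the GI50, growth is halved. TGI marks complete inhibition of growth.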
Legend:
Assay in all cases: DTP human tumour cell line panel, 48 h
[1] = tested on: SR leukemia
[2] = tested on: HL-60(TB) leukemia
[3] = tested on: OVCAR-8 ovarian
[4] = tested on: DU-145 prostate
[5] = tested on: SW-620 colon
[6] = tested on: OVCAR-5 ovarian
[7] = tested on: LOX IMVI melanoma
[8] = tested on: SNB-75 CNS
[9] = tested on: SK-MEL-2 melanoma
[10] = tested on: HOP-62 NSCLC
[11] = tested on: CCRF-CEM leukemia
[12] = tested on: U251 CNS

Compound	TGI [1]	TGI [2]	TGI [3]	TGI [4]	TGI [5] [µM]	TGI [6]	TGI [7]	TGI [8]	TGI [9]	TGI [10]	TGI [11]	TGI [12]	GI50 [1] [µM]	GI50 [4] [µM]
Cc1ccc(N2C(=O)C(=O)N(/N=C3\C(=O)Nc4ccccc43)C2=S)cc1	> 100 µM	25.4 µM	> 100 µM	> 100 µM	> 100	> 100 µM	> 100 µM	> 100 µM	> 100 µM	> 100 µM	> 100 µM	> 100 µM		
CC1=C(C)C(=O)C(C2=C(C3=CC(=O)C(C)=C(C)C3=O)C(=O)c3ccccc3C2=O)=CC1=O	14.1 µM	1.11 µM	8.07 µM	8.06 µM	4.99	32.2 µM	5.94 µM	19.6 µM	5.71 µM	31.8 µM	7.22 µM	12.6 µM		
Cn1c(=O)sc2cc(C(=S)N3CCN(c4ccccc4)CC3)ccc21	> 100 µM	> 100 µM	> 100 µM	> 100 µM	> 100	> 100 µM	> 100 µM	80.6 µM	> 100 µM	42.8 µM	> 100 µM	35.1 µM		
COc1nc(C)nc2c1ncn2Cc1ccccc1	> 100 µM	> 100 µM	> 100 µM	> 100 µM	> 100	> 100 µM	> 100 µM	> 100 µM		> 100 µM	> 100 µM	> 100 µM		
Cc1cc(-c2ccc(C(=O)C(c3ccccc3)(c3ccccc3)c3ccccc3)[nH]2)on1	29.7 µM	26.1 µM	42 µM	50.3 µM	75	> 100 µM	53.3 µM	> 100 µM	36 µM	53.5 µM	52.9 µM	37.1 µM		
O=C1C(NS(=O)(=O)c2ccccc2)=C(N(Cc2ccccc2)Cc2ccccc2)C(=O)c2ccccc21	> 100 µM	66.1 µM	> 100 µM	> 100 µM	> 100	> 100 µM	> 100 µM	> 100 µM	45.8 µM	> 100 µM	77.4 µM	> 100 µM		
O=c1c(Sc2ncccn2)c(Sc2ncccn2)cnn1CCl	12.4 µM	5 µM	7.53 µM	9.23 µM	17.9	21.1 µM	5.28 µM	34.6 µM	5.88 µM	8.05 µM	7.68 µM	19.7 µM		
CC(C)(C)N=c1n(C(C)(C)C)oc(=O)n1-c1ccccc1	> 50 µM	> 50 µM	> 50 µM	> 50 µM	> 50	> 50 µM	> 50 µM	> 50 µM	> 50 µM	> 50 µM	> 50 µM	> 50 µM		
N#Cc1c(N2CCOCC2)ncn(-c2ccc(Cl)cc2)c1=O	> 100 µM	> 100 µM	> 100 µM	> 100 µM	> 100	> 100 µM	> 100 µM	> 100 µM	> 100 µM	> 100 µM	> 100 µM	> 100 µM		
Cc1ccc(-n2cc(-c3ccc(Cl)cc3)c3c2N=CN2NC(c4cccs4)=NC32)cc1 (stereo unspecified)	> 100 µM	45.1 µM	21 µM	> 100 µM	> 100	51 µM	> 100 µM	23.4 µM	33 µM	35.2 µM	42.4 µM	18.1 µM		
CCOP(=O)(OCC)C(=C1C=C(C(C)(C)C)C(=O)C(C(C)(C)C)=C1)P(=O)(OCC)OCC	> 10 µM	> 7.36 µM	> 10 µM	> 10 µM	3.55	> 10 µM	> 10 µM	> 10 µM	> 10 µM	> 10 µM	> 6.32 µM	> 10 µM		
Cc1cn2c(/C=C3/C(=O)Nc4ccccc43)c(C)nc2s1	47 µM	2.53 µM	> 100 µM	> 100 µM	77.3	> 100 µM	70.4 µM	> 100 µM	5.57 µM	> 100 µM	8.91 µM	10.9 µM		
COC(=O)C1=NN2c3ccccc3CN([C@@H](C)c3ccccc3)C(=O)[C@H]2[C@@H]1C	> 100 µM	> 100 µM	> 100 µM	> 100 µM	> 100	> 100 µM	> 100 µM	95 µM	> 100 µM	> 100 µM	> 100 µM	> 100 µM		
C=CC[C@H]1[C@H](O[Si](C)(C)C(C)(C)C)C=CC(=O)[C@@H]1CC(=O)OCC	41.7 µM	24.8 µM	31.6 µM	32.8 µM	33	27.1 µM	32 µM	30.1 µM	28.1 µM	34.5 µM	29.9 µM	27.8 µM		
Oc1ccc(Cn2c(-c3ccc(O)cc3)nc3ccccc32)cc1	> 31.6 µM	> 31.6 µM	> 100 µM	> 100 µM	> 100	> 100 µM	> 100 µM	> 100 µM	> 100 µM	> 100 µM	> 100 µM	> 100 µM		
Cc1nc(Nc2nc3ccccc3[nH]2)[nH]c(=O)c1CCO	> 100 µM	> 100 µM	> 100 µM	> 100 µM	> 100	> 100 µM	> 94.7 µM	> 100 µM	> 100 µM	> 100 µM	> 100 µM	> 100 µM		
C(=N/NC1=NCCN1)/c1c2ccccc2c(/C=N\NC2=NCCN2)c2ccccc12	0.759 µM and 4.29 µM	1.13 µM and 2.33 µM and 0.725 µM	1.32 µM and 2.98 µM and 3.42 µM	0.623 µM and 3.43 µM		1.38 µM and 0.95 µM and 0.793 µM	0.27 µM and 0.332 µM and 1.75 µM	0.054 µM and 0.426 µM and 0.44 µM	0.271 µM and 0.747 µM and 0.422 µM	0.611 µM and 1.75 µM and 0.597 µM	1.92 µM and 1.13 µM and 1.33 µM	0.722 µM and 0.309 µM and 1.16 µM	0.116	0.0878
C[N+]12CCCCC1C(CN1C(=O)c3ccccc3C1=O)CCC2 (stereo unspecified)	> 100 µM	> 100 µM	> 100 µM	> 100 µM	> 100	> 100 µM	> 100 µM	> 100 µM	> 100 µM	> 100 µM	> 100 µM	> 100 µM		
